{"source": "paper PMC7398468", "about": "(Gut, 2020)", "target": "SUMO-activating enzyme (SAE), subunit 2 (UBA2/SAE2) (Homo sapiens, UniProt Q9UBT2)", "sequence (Q9UBT2 whole entry)": "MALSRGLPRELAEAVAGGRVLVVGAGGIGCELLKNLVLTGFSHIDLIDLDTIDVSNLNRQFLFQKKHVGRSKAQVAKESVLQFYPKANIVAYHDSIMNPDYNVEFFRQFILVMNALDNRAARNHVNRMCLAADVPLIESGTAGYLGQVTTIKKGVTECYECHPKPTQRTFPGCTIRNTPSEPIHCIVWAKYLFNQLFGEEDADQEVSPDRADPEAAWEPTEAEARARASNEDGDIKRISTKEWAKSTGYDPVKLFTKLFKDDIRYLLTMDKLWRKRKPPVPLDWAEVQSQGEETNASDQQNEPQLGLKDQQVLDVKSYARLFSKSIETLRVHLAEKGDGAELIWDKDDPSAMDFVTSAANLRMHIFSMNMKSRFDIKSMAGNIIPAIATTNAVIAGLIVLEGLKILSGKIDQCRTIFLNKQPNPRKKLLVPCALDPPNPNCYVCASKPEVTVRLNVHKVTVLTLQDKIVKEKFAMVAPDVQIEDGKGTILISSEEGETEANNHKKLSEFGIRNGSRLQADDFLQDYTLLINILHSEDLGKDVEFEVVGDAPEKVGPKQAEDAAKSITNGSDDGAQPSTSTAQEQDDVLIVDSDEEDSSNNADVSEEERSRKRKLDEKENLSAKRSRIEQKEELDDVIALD", "sequence (Q9UBE0 whole entry, further chain)": "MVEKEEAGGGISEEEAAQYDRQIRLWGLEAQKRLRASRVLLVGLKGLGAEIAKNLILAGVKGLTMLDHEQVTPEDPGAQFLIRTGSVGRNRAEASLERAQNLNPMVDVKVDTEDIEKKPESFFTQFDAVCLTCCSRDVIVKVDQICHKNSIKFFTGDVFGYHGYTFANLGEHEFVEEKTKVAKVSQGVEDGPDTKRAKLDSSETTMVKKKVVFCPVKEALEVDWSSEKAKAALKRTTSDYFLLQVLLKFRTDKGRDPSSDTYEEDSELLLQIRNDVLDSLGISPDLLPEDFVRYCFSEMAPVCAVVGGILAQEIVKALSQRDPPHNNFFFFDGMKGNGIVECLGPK", "test": "ATP-inorganic pyrophosphate exchange assay with SUMO2", "assay_type": "biochemical", "data": [{"substance": "ML-93", "values": [{"measurement": "IC50", "value": 37, "unit": "nM"}]}]}
